Test results: patent publication US20210002262A1, “CYANOPYRROLIDINES AS USP30 INHIBITORS AND FIBROSIS TREATMENT” (MISSION THERAPEUTICS LIMITED, priority 2018, published 2021)
Entries after “also recorded” stand apart in the source; their conditions may differ.

Tests used:
[1] = test system: Unilateral ureteral obstruction (UUO) kidney fibrosis; assay: Unilateral ureteral obstructive kidney disease model (UUO); type: in vivo; settings: for In life mortality / collagen (picrosirius red staining): UUO
Text: In this study, adult C57B16 female mice at 7 to 8 weeks of age with average weight of around 18 to 20 g were used. To complete the ureteral obstruction, the abdominal cavity was exposed via a midline incision and the left ureter was ligated at two points with 4-0 silk and dissected. Successful unilateral ureteral obstruction was later confirmed by observation of dilation of the renal pelvis due to hydronephrosis.
At harvest, mice were anesthetised and both kidneys were harvested; the contralateral kidney serves as control for the UUO kidney. The kidneys were dissected along median line into two parts, of which one side was fixed in formaldehyde, for paraffin embedding and the other was snap frozen for protein or RNA isolation.
Formalin fixed tissue were embedded in paraffin blocks and cut into 5 μm sections. All damaged kidneys, 5 contralateral kidneys from each group and 3 sham kidneys were analysed (in total n=80 kidney samples). Picrosirius Red and α-SMA stain was performed to evaluate fibrotic changes and myofibroblast activation. Analysis was performed by a pathology trained technical staff member, without knowledge of the animal group assignment. High magnification images were taken of each slide an analysed for the surface area covered by the stain.

[2] = test system: Bleomycin-induced lung fibrosis; assay: Bleomycin-induced lung fibrosis model; settings: for In life mortality: oral, days 7 to 21, bleomycin 1.5 U/kg
Method: Treatment group animals (n=10/group) received 1.5 U/kg of clinical bleomycin via oropharyngeal route on day 0 under inhalant anaesthesia. Animals were monitored for tolerance of the bleomycin administration procedure and subsequently bodyweights of all mice were recorded at least 3 times per week during the study. […] All treatments were administered orally.
At day 21, lungs were harvested from each animal and weighed, followed by fixation in 10% neutral buffered formalin (NBF) for histopathological analysis. The lung samples were processed and embedded with all lobes from each mouse in one paraffin block. Coronal sections through the four major lobes were stained with Masson's Trichrome. For each animal, consecutive lung fields were examined at 200×magnification in a raster pattern using a 20×objective lens and a 10×ocular lens. […] The Fibrotic Index was calculated as the sum of the modified Ashcroft field scores divided by the number of fields examined.

USP30 = molecular target: T1, USP30 (Homo sapiens, UniProt Q70CQ3); assay: USP30 biochemical IC50 assay; settings: Examples of WO 2017/103614
T1 sequence (Q70CQ3 1-517): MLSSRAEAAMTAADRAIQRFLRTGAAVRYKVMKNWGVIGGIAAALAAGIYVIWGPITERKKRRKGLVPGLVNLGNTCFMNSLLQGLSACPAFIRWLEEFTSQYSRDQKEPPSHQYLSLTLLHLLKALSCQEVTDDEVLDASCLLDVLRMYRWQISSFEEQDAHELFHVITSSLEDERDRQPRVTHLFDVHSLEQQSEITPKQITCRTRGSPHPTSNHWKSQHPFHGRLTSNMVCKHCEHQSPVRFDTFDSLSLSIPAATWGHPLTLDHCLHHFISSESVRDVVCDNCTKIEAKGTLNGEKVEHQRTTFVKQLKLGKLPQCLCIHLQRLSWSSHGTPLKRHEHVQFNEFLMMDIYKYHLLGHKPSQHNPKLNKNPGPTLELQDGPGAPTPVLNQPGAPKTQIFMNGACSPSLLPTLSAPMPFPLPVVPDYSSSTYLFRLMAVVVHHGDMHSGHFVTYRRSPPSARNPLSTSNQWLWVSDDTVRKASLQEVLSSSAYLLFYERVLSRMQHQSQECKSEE
Method: Dilution plates were prepared at 21 times the final concentration (2100 μM for a final concentration of 100 μM) in 50% DMSO in a 96-well polypropylene V-bottom plate (Greiner #651201). A typical 8-point dilution series would be 100, 30, 10, 3, 1, 0.3, 0.1, 0.03 μM final. Reactions were performed in duplicate in black 384 well plates (small volume, Greiner 784076) in a final reaction volume of 21 μl. Either 1 μl of 50% DMSO or diluted compound was added to the plate. USP30 was diluted in reaction buffer (40 mM Tris, pH 7.5, 0.005% Tween 20, 0.5 mg/ml BSA, 5 mM beta-mercaptoethanol) to the equivalent of 0.05 μl/well and 10 μl of diluted USP30 was added to the compound. Enzyme and compound were incubated for 30 min at room temp. Reactions were initiated by the addition of 50 nM of TAMRA labelled peptide linked to ubiquitin via an iso-peptide bond as fluorescence polarisation substrate. Reactions were read immediately after addition of substrate and following a 2-hour incubation at room temperature. Readings were performed on a Pherastar Plus (BMG Labtech). λ Excitation 540 nm; λ Emission 590 nm.

diet-induced NAFLD/NASH = assay: Diet-induced model of NAFLD/NASH; type: in vivo, mice; settings: 8 weeks
Method: Mice were fed Amylin-diet (D09100301, Research Diets, US; 40% fat (18% trans-fat), 40% carbohydrate (20% fructose) and 2% cholesterol) for 37 weeks. Liver biopies were harvested and mice were randomization into treatment groups based on liver Colla1 quantification. Three weeks following biopsy surgery, study animals were dosed orally (P.O.) with either; Vehicle (0.5% HPMC/0.5% PVP/0.1% SDS nanosuspension), MT#1 @ 15 mg/kg QD or MT#1 @ […] QD […] or with Elafibranor @ 30 mg/kg QD (positive control) for eight (8) weeks. A control group of age- and sex-matched mice fed lean chow diet ad libitum were also administered vehicle (P.O) over the same 8 (eight) week period. Following the full dosing schedule, mice were sacrificed, whole livers resected and weighed, fixed in paraformaldehyde before being paraffin embedded. H&E stained slides were then prepared and the average % fractional area of lipid vacuoles (steatosis) determined for each section (@ 20×objective) using Visiomorph software (Visophram, Denmark). The average % fractional area was multiplied by the total liver weight to determine the total liver lipid content per animal. Values expressed as mean of n=9-12+SEM. Dunnett's test one-factor linear model. **: P<0.01, ***: P<0.001 compared to DIO-NASH Vehicle.
Summary of fibrosis stage scores of pre- and post-study liver biopsies harvested from the diet-induced NAFLD/NASH study. Fibrosis stage scores are determined by assessment of picosirius red stained liver sections for relative appearance and location of collagen staining, where; 0=No staining, 1=Perisinusoidal or periportal, 2=Perisinusoidal and periportal and […]=Bridging collagen staining observed. For each group of animals with higher (worsening), same or lower (improvement) in score at post-compared to pre-study is indicated by the height of the bar. One-sided Fisher's exact test with Bonferroni correction. No differences at significance level 0.05.

## N#Cc1cccc(-c2nnc(C(=O)NC[C@H]3CCN(C#N)C3)o2)c1 [Example 68, (R)-5-(3-cyanophenyl)-N-((1-cyanopyrrolidin-3-yl)methyl)-1,3,4-oxadiazole-2-carboxamide]
[1]; 5 mg/kg MT#1 nanosuspension BID PO, days 0 to 10
  In life mortality: 10%
[1]; 15 mg/kg BID MT#1
  collagen (picrosirius red staining): Statistically significant decreases
[1]; 15 mg/kg MT#1 nanosuspension BID PO, days 0 to 10
  In life mortality: 0%
[1]; 50 mg/kg BID MT#1
  collagen (picrosirius red staining): Statistically significant decreases
[1]; 50 mg/kg MT#1 nanosuspension BID PO, days 0 to 10
  In life mortality: 10%
[1]; UUO, 5, 15, 50 mg/kg BID PO, days 0 to 10
  collagen deposition as measured by picrosirius red staining: dose dependent decrease
[2]; 5 mg/kg MT#1 nanosuspension BID
  In life mortality: 10%
[2]; 15 mg/kg MT#1 nanosuspension BID
  In life mortality: 10%
[2]; 50 mg/kg BID oral, one-way ANOVA + Tukey
  fibrosis as assessed by the modified Ashcroft score, effect compared to vehicle: statistically significant effect compared to vehicle
[2]; 50 mg/kg MT#1 nanosuspension BID
  In life mortality: 0%
[2]; dose ranging 5, 15, 50 mg/kg BID oral, days 7 to 21, harvest day 21
  fibrosis as assessed by the modified Ashcroft score (collagen deposition, septae thickening): dose dependent reduction
USP30
  IC50: < 10 nM
diet-induced NAFLD/NASH; NASH animals, MT#1 15 mg/kg BID (P.O.), compared to DIO-NASH Vehicle
  total liver lipid content, reduction: statistically significant
diet-induced NAFLD/NASH; NASH animals, P.O., dose dependence
  total liver lipid content: dose-dependent reduction
diet-induced NAFLD/NASH; diet-induced NAFLD/NASH, P.O., Elafibranor 30 mg/kg QD
  liver steatosis: statistically significant reduction
diet-induced NAFLD/NASH; diet-induced NAFLD/NASH, P.O., Elafibranor 30 mg/kg QD, listed as MT#1
  fibrotic stage scores (picosirius red stained liver sections, post- compared to pre-study biopsy): Neither MT#1 or Elafibranor (positive control) significantly improved; also recorded: did not significantly improve
